# According to US20230137021A1, “Drug Conjugates of Sugar Derivatives and Uses Thereof as Senolytic Agents” (Rubedo Life Sciences, Inc., priority 2021, published 2023):
# Like-named read-outs stand apart in the source and are kept apart here.
# Experiments:
# Type in all cases: cell-based
# [1] = test system: T47D breast cancer cells, sgNTC; assay: CRISPR-engineered cancer cell line viability assay (XTT), T47D sgNTC; details: T47D cells with Cas9 and sgNTC, treated for three days, absolute IC50 at Y=0.5 viability, read-out: T47/D sgNTC
# Method: (§1) T47D and HCC1954 breast cancer cells were cultured in RPMI 1640 medium containing 10% heat inactivated fetal bovine serum. Cell lines were infected with lentiviral construct(s) containing S. pyogenes Cas9 and sgRNA(s) targeting the gene(s) of interest. Infected cells were selected by antibiotic treatment. To assess cell viability in response to compound treatment, cells were seeded into 96-well plates. The next day, serial dilutions covering 10 concentrations of compound were added to the cells. Cells were treated for three days. Cell viability was determined by mitochondrial dehydrogenase activity (XTT assay, Cayman Chemical). To generate dose-response curves, data was fitted to a four-parameter Hill function and the absolute IC50 was determined at Y=0.5 viability.
# [2] = test system: T47D breast cancer cells, sgFUCA1; assay: CRISPR-engineered cancer cell line viability assay (XTT), T47D/sgFUCA1; details: T47D cells with Cas9 and sgFUCA1, treated for three days, absolute IC50 at Y=0.5 viability
# Method: as §1
# [3] = test system: senescent IMR90 primary lung fibroblasts; assay: Cytotoxicity assay (XTT), senescent IMR90 cells; details: incubated with drug for 72 hours, read-out: IMR90 SEN
# Method: Proliferating and senescent cells were maintained in T175 flasks under the conditions specified below, passaging upon reaching ˜90% confluency. Prior to use in cytotoxicity assays, cells were visually inspected under phase microscopy for contamination and health; if either contamination or significant cell debris was noted, cells were not used. Healthy cells were plated into the middle 60 wells of 96-well plates at a concentration of either 5,000 or 10,000 cells/well (for proliferating and senescent conditions, respectively). The outer 36 wells in each plate contained DPBS to both prevent desiccation of the interior wells and edge effects upon spectrometry readings. […] The XTT reagent undergoes an absorbance shift upon reduction through an NAD(P)H-dependent metabolic reaction, and the resulting shift can be used to quantify the viability of the remaining cells after drug treatment. Absorbance readings for each test article were taken once a suitable dynamic range was achieved (generally 0.7-1.4 absorbance units). […]
# IMR90 primary lung fibroblasts were thawed into DMEM (high glucose, 4 mM L-glutamine, no sodium pyruvate) supplemented with 10% heat-inactivated fetal bovine serum and 1% penicillin-streptomycin antibiotic cocktail. […] Following this rest period, senescence induction was assessed by morphology, SA-β-gal activity, and EdU incorporation. […]
# senescent A549 cells = assay: Cytotoxicity assay (XTT), senescent A549 cells; details: A549 senescence induced with 25 μM gemcitabine, incubated with drug for 72 hours, read-out: A549 SEN
# Method: Proliferating and senescent cells were maintained in T175 flasks under the conditions specified below, passaging upon reaching ˜90% confluency. Prior to use in cytotoxicity assays, cells were visually inspected under phase microscopy for contamination and health; if either contamination or significant cell debris was noted, cells were not used. Healthy cells were plated into the middle 60 wells of 96-well plates at a concentration of either 5,000 or 10,000 cells/well (for proliferating and senescent conditions, respectively). The outer 36 wells in each plate contained DPBS to both prevent desiccation of the interior wells and edge effects upon spectrometry readings. After seeding cells into the 96-well plates, they were given 24 hours to attach prior to drug addition. Drug was added in triplicate across 10 different concentrations, spanning roughly 4 Log 10 units. Plates were incubated with drug for 72 hours, at which point the drug-containing media was aspirated and replaced with XTT media. The XTT reagent undergoes an absorbance shift upon reduction through an NAD(P)H-dependent metabolic reaction, and the resulting shift can be used to quantify the viability of the remaining cells after drug treatment. Absorbance readings for each test article were taken once a suitable dynamic range was achieved (generally 0.7-1.4 absorbance units). The resulting data was then background corrected and logarithmized to produce concentration-response curves.
# Wild type A549 cells were thawed into DMEM (high glucose, 4 mM L-glutamine, no sodium pyruvate) supplemented with 10% heat-inactivated fetal bovine serum and 1% penicillin-streptomycin antibiotic cocktail. Cells were cultured at 37 C, 5% CO2, and atmospheric oxygen. For senescence induction, only A549s at passage 20 or lower were used. Cells were grown to 60-70% confluency before aspirating media and replacing with fresh media containing 25 μM gemcitabine. Cells were cultured without refreshing media for 72 hours. After treatment, the drug-containing media was aspirated, cells were gently washed with 1×DPBS, and fresh, drug-free media was added to the flask, at which point the cells were allowed to rest for a further 72 hours. Following this rest period, senescence induction was assessed by morphology, SA-β-gal activity, and EdU incorporation. Note: senescence induction with gemcitabine can occasionally result in spontaneous re-entry into the cell cycle in A549s. For this reason, cells should be used in various assays within 14 days of induction to avoid outgrowth of non-senescent populations. In cytotoxicity assays, proliferating cells at passage 20 or younger were included as a comparator. […]
# [4] = test system: T47D breast cancer cells, sgGLB sgGALC; assay: CRISPR-engineered cancer cell line viability assay (XTT), T47D/sgGLB sgGALC; details: Homo sapiens, 72 h, T47D cells with Cas9 and sgGLB sgGALC, treated for three days, absolute IC50 at Y=0.5 viability
# Method: as §1
Molecule,"IC50 ([1]; Homo sapiens, 72 h)","IC50 ([2]; Homo sapiens, 72 h)",IC50 (senescent A549 cells; Homo sapiens),further results
CC(=O)O[C@H]1[C@H](C)O[C@@H](ONC(=O)/C=C/c2ccc(CN(CCc3c(C)[nH]c4ccccc34)C(=O)OCc3oc(=O)oc3C)cc2)C[C@@H]1OC(C)=O [Compound 105],0.0531 µM,2.86 µM,–,–
"(2E)-N-{[(3aR,4S,7aS)-4-methyl-2-oxo-hexahydro-[1,3]dioxolo[4,5-c]pyran-6-yl]oxy}-3-[4-({[2-(2-methyl-1H-indol-3-yl)ethyl]amino}methyl)phenyl]prop-2-enamide [Compound 109]",–,–,–,IC50 [1]: 0.33 µM; IC50 [2]: 1.36 µM; IC50 ([3]; IMR90 senescence induced with 300 nM doxorubicin): 13.5 µM; IC50 (senescent A549 cells): 2.27 µM
C/C(=C\C=C\CNCCc1c(C)[nH]c2ccccc12)C/C=C/C(=O)NOC1O[C@H](CO)[C@H](F)[C@H](O)[C@H]1O (some centres unmarked) [Compound 126],–,–,> 30 µM,–
"CC(=O)O[C@@H]1[C@H](C)O[C@@H](ONC(=O)c2cnc(N3CCC(CNCc4cn(C)c5ccccc45)CC3)nc2)C[C@@H]1OC(C)=O [Compound 107, (2S,3R,4S,6S)-3-(acetyloxy)-2-methyl-6-[({2-[4-({[(1-methyl-1H-indol-3-yl)methyl]amino}methyl)piperidin-1-yl]pyrimidin-5-yl}formamido)oxy]oxan-4-yl acetate]",0.0094 µM,1.01 µM,–,–
"Cc1[nH]c2ccccc2c1CCNCc1ccc(/C=C/C(=O)NO[C@@H]2O[C@H](CO)C[C@H](O)[C@H]2O)cc1 [Compound 124, (E)-N-[(2S,3R,4S,6S)-3,4-dihydroxy-6-(hydroxymethyl)tetrahydropyran-2-yl]oxy-3-[4-[[2-(2-methyl-1H-indol-3-yl)ethylamino]methyl]phenyl]prop-2-enamide]",9.86 µM,–,67 µM,IC50 [4]: > 30 µM
Cc1[nH]c2ccccc2c1CCNCc1ccc(/C=C/C(=O)NO[C@H]2C[C@H](O)[C@@H](O)[C@H](C)O2)cc1 [Compound 112],0.822 µM,16.4 µM,–,–
"C[C@@H]1O[C@@H](ONC(=O)c2cnc(N3CCC(CNCc4cn(C)c5ccccc45)CC3)nc2)C[C@H](O)[C@@H]1O [Compound 108, N-{[(2S,4S,5S,6S)-4,5-dihydroxy-6-methyloxan-2-yl]oxy}-2-[4-({[(1-methyl-1H-indol-3-yl)methyl]amino}methyl)piperidin-1-yl]pyrimidine-5-carboxamide]",0.942 µM,8.72 µM,–,–
"Cc1[nH]c2ccccc2c1CCNCc1ccc(/C=C/C(=O)NO[C@@H]2O[C@H](CF)[C@H](O)[C@H](O)[C@H]2O)cc1 [Compound 122, (E)-N-[(2S,3R,4S,5R,6S)-6-(fluoromethyl)-3,4,5-trihydroxy-tetrahydropyran-2-yl]oxy-3-[4-[[2-(2-methyl-1H-indol-3-yl)ethylamino]methyl]phenyl]prop-2-enamide]",> 30 µM,–,–,IC50 [4]: > 30 µM
Cc1[nH]c2ccccc2c1CCN(Cc1ccc(/C=C/C(=O)NO[C@H]2C[C@H](O)[C@@H](O)[C@H](C)O2)cc1)C(=O)OCc1oc(=O)oc1C [Compound 106],–,29.2 µM,–,–
CC(=O)O[C@H]1[C@H](C)O[C@@H](ONC(=O)/C=C/c2ccc(CNCCc3c(C)[nH]c4ccccc34)cc2)C[C@@H]1OC(C)=O [Compound 111],0.0253 µM,1.11 µM,0.243 µM,"IC50 ([3]; Homo sapiens, IMR-90, IMR90 senescence induced with 300 nM doxorubicin): 3.78 µM"
